Experimental data as given in patent US20230085307A1, “PYRIDAZINONE COMPOUND AND HERBICIDE” (NISSAN CHEMICAL CORPORATION, priority 2019, published 2023).

Legend:
[1] = system: lambsquarters; assay: Test Example 4: herbicidal effect by soil treatment (Table 19, symbol O); assay type: in vivo, lambsquarters (Chenopodium album); settings: amount of applied herbicide 320 g/ha
Method in brief: (§1)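 Scoring uses the grading scale of an earlier test, three weeks post-application. Treatment consists of spraying a diluted emulsion formulation across the surface of sterilized diluvial soil in which seeds are buried near 1.5 cm deep; boxes are kept in a greenhouse between 25° C. and 30° C.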

[2] = system: redroot pigweed; assay: Test Example 4: herbicidal effect by soil treatment (Table 19, symbol N); assay type: in vivo, redroot pigweed (Amaranthus retroflexus); settings: amount of applied herbicide 320 g/ha
Method in brief: as §1

[3] = system: Italian ryegrass; assay: Test Example 4: herbicidal effect by soil treatment (Table 19, symbol K); assay type: in vivo, Italian ryegrass (Lolium multiflorum); settings: amount of applied herbicide 320 g/ha
Method in brief: as §1

[4] = system: lambsquarters; assay: Test Example 5: herbicidal effect by foliage application, plastic box (Table 20, symbol O); assay type: in vivo, lambsquarters (Chenopodium album); settings: foliage application, 320 g/ha, three weeks after application
Method in brief: (§2)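 Post-emergence foliar test in sterilized diluvial soil. Compound applied as water-diluted emulsion at a predetermined rate to 14-day-old plants; evaluation at three weeks.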

[5] = system: barnyard grass; assay: Test Example 5: herbicidal effect by foliage application, plastic box (Table 20, symbol H); assay type: in vivo, barnyard grass (Echinochloa crus-galli); settings: foliage application, 320 g/ha, three weeks after application
Method in brief: as §2

[6] = system: blackgrass; assay: Test Example 5: herbicidal effect by foliage application, plastic box (Table 20, symbol J); assay type: in vivo, blackgrass (Alopecurus myosuroides); settings: foliage application, 320 g/ha, three weeks after application
Method in brief: as §2

[7] = system: false cleavers; assay: Test Example 4: herbicidal effect by soil treatment (Table 19, symbol Q); assay type: in vivo, false cleavers (Galium spurium); settings: amount of applied herbicide 320 g/ha
Method in brief: as §1

[8] = system: persian speedwell; assay: Test Example 5: herbicidal effect by foliage application, plastic box (Table 20, symbol R); assay type: in vivo, Persian speedwell (Veronica persica); settings: foliage application, 320 g/ha, three weeks after application
Method in brief: as §2

[9] = system: southern crabgrass; assay: Test Example 4: herbicidal effect by soil treatment (Table 19, symbol F); assay type: in vivo, southern crabgrass (Digitaria ciliaris); settings: amount of applied herbicide 320 g/ha
Method in brief: as §1

[10] = system: velvetleaf; assay: Test Example 4: herbicidal effect by soil treatment (Table 19, symbol M); assay type: in vivo, velvetleaf (Abutilon theophrasti); settings: amount of applied herbicide 320 g/ha
Method in brief: as §1

[11] = system: chickweed; assay: Test Example 4: herbicidal effect by soil treatment (Table 19, symbol P); assay type: in vivo, common chickweed (Stellaria media); settings: amount of applied herbicide 320 g/ha
Method in brief: as §1

[12] = system: Chinese sprangletop; assay: Test Example 3: herbicidal effect by foliage application, Wagner pot (Table 18, symbol D); assay type: in vivo, chinese sprangletop (Leptochloa chinensis); settings: amount of applied herbicide 320 g/ha
Method in brief: (§3)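 Plants were sown in alluvial soil held under 0.1–0.5 cm standing water and grown 14 days in a greenhouse at 25–30 °C. An emulsifiable formulation, water-diluted to the set dose, was then sprayed onto the foliage, and effects were scored three weeks later using previously defined criteria.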

[13] = system: blackgrass; assay: Test Example 4: herbicidal effect by soil treatment (Table 19, symbol J); assay type: in vivo, blackgrass (Alopecurus myosuroides); settings: amount of applied herbicide 320 g/ha
Method in brief: as §1

[14] = system: velvetleaf; assay: Test Example 5: herbicidal effect by foliage application, plastic box (Table 20, symbol M); assay type: in vivo, velvetleaf (Abutilon theophrasti); settings: foliage application, 320 g/ha, three weeks after application
Method in brief: as §2

[15] = system: wild oat; assay: Test Example 5: herbicidal effect by foliage application, plastic box (Table 20, symbol I); assay type: in vivo, wild oat (Avena fatua); settings: foliage application, 320 g/ha, three weeks after application
Method in brief: as §2

[16] = system: barnyard grass; assay: Test Example 4: herbicidal effect by soil treatment (Table 19, symbol H); assay type: in vivo, barnyard grass (Echinochloa crus-galli); settings: amount of applied herbicide 320 g/ha
Method in brief: as §1

[17] = system: southern crabgrass; assay: Test Example 5: herbicidal effect by foliage application, plastic box (Table 20, symbol F); assay type: in vivo, southern crabgrass (Digitaria ciliaris); settings: foliage application, 320 g/ha, three weeks after application
Method in brief: as §2

[18] = system: wild oat; assay: Test Example 4: herbicidal effect by soil treatment (Table 19, symbol I); assay type: in vivo, wild oat (Avena fatua); settings: amount of applied herbicide 320 g/ha
Method in brief: as §1

[19] = system: rice flat sedge; assay: Test Example 3: herbicidal effect by foliage application, Wagner pot (Table 18, symbol E); assay type: in vivo, rice flat sedge (Cyperus iria); settings: amount of applied herbicide 320 g/ha
Method in brief: as §3

[20] = system: green foxtail; assay: Test Example 5: herbicidal effect by foliage application, plastic box (Table 20, symbol G); assay type: in vivo, green foxtail (Setaria viridis); settings: foliage application, 320 g/ha, three weeks after application
Method in brief: as §2

[21] = system: windgrass; assay: Test Example 4: herbicidal effect by soil treatment (Table 19, symbol L); assay type: in vivo, windgrass (Apera spica-venti); settings: amount of applied herbicide 320 g/ha
Method in brief: as §1

[22] = system: persian speedwell; assay: Test Example 4: herbicidal effect by soil treatment (Table 19, symbol R); assay type: in vivo, Persian speedwell (Veronica persica); settings: amount of applied herbicide 320 g/ha
Method in brief: as §1

[23] = system: barnyard grass; assay: Test Example 3: herbicidal effect by foliage application, Wagner pot (Table 18, symbol H); assay type: in vivo, barnyard grass (Echinochloa crus-galli); settings: amount of applied herbicide 320 g/ha
Method in brief: as §3

[24] = system: green foxtail; assay: Test Example 4: herbicidal effect by soil treatment (Table 19, symbol G); assay type: in vivo, green foxtail (Setaria viridis); settings: amount of applied herbicide 320 g/ha
Method in brief: as §1

[25] = system: windgrass; assay: Test Example 5: herbicidal effect by foliage application, plastic box (Table 20, symbol L); assay type: in vivo, windgrass (Apera spica-venti); settings: foliage application, 320 g/ha, three weeks after application
Method in brief: as §2

[26] = system: Italian ryegrass; assay: Test Example 5: herbicidal effect by foliage application, plastic box (Table 20, symbol K); assay type: in vivo, Italian ryegrass (Lolium multiflorum); settings: foliage application, 320 g/ha, three weeks after application
Method in brief: as §2

## Cc1nn(C)c(=O)c(-c2c(-c3ccc(F)cc3)oc3ccc(F)cc23)c1O [9-014]
[1]
  O: lambsquarters, herbicidal effect grade: 3 (Herbicidal rate of 40% or more and less than 70%)
[2]
  N: redroot pigweed, herbicidal effect grade: 5 (Herbicidal rate of 90% or more (almost completely withered))
[3]
  K: Italian ryegrass, herbicidal effect grade: 5 (Herbicidal rate of 90% or more (almost completely withered))
[4]
  herbicidal effect on lambsquarters (O): 4 (Herbicidal rate of 70% or more and less than 90%)
[5]
  herbicidal effect on barnyard grass (H): 4 (Herbicidal rate of 70% or more and less than 90%)
[6]
  herbicidal effect on blackgrass (J): 4 (Herbicidal rate of 70% or more and less than 90%)
[7]
  Q: false cleavers, herbicidal effect grade: 0 (Herbicidal rate of 5% or less (almost no effect))
[8]
  herbicidal effect on persian speedwell (R): 5 (Herbicidal rate of 90% or more (almost completely withered))
[9]
  F: southern crabgrass, herbicidal effect grade: 4 (Herbicidal rate of 70% or more and less than 90%)
[10]
  M: velvetleaf, herbicidal effect grade: 4 (Herbicidal rate of 70% or more and less than 90%)
[11]
  P: chickweed, herbicidal effect grade: 5 (Herbicidal rate of 90% or more (almost completely withered))
[12]
  Herbicidal effect on D (Chinese sprangletop), foliage application: 3 (Herbicidal rate of 40% or more and less than 70%)
[13]
  J: blackgrass, herbicidal effect grade: 4 (Herbicidal rate of 70% or more and less than 90%)
[14]
  herbicidal effect on velvetleaf (M): 3 (Herbicidal rate of 40% or more and less than 70%)
[15]
  herbicidal effect on wild oat (I): 3 (Herbicidal rate of 40% or more and less than 70%)
[16]
  H: barnyard grass, herbicidal effect grade: 4 (Herbicidal rate of 70% or more and less than 90%)
[17]
  herbicidal effect on southern crabgrass (F): 2 (Herbicidal rate of 20% or more and less than 40%)
[18]
  I: wild oat, herbicidal effect grade: 1 (Herbicidal rate of 5% or more and less than 20%)
[19]
  Herbicidal effect on E (rice flat sedge), foliage application: 5 (Herbicidal rate of 90% or more (almost completely withered))
[20]
  herbicidal effect on green foxtail (G): 4 (Herbicidal rate of 70% or more and less than 90%)
[21]
  L: windgrass, herbicidal effect grade: 0 (Herbicidal rate of 5% or less (almost no effect))
[22]
  R: persian speedwell, herbicidal effect grade: 4 (Herbicidal rate of 70% or more and less than 90%)
[23]
  Herbicidal effect on H (barnyard grass), foliage application: 3 (Herbicidal rate of 40% or more and less than 70%)
[24]
  G: green foxtail, herbicidal effect grade: 5 (Herbicidal rate of 90% or more (almost completely withered))
[25]
  herbicidal effect on windgrass (L): 4 (Herbicidal rate of 70% or more and less than 90%)
[26]
  herbicidal effect on Italian ryegrass (K): 5 (Herbicidal rate of 90% or more (almost completely withered))

## Cc1nn(C)c(=O)c(-c2c(-c3ccc(SC(C)C)cc3)oc3ccc(F)cc23)c1O [9-041]
[1]
  O: lambsquarters, herbicidal effect grade: 4 (Herbicidal rate of 70% or more and less than 90%)
[2]
  N: redroot pigweed, herbicidal effect grade: 5 (Herbicidal rate of 90% or more (almost completely withered))
[3]
  K: Italian ryegrass, herbicidal effect grade: 5 (Herbicidal rate of 90% or more (almost completely withered))
[4]
  herbicidal effect on lambsquarters (O): 4 (Herbicidal rate of 70% or more and less than 90%)
[5]
  herbicidal effect on barnyard grass (H): 3 (Herbicidal rate of 40% or more and less than 70%)
[6]
  herbicidal effect on blackgrass (J): 3 (Herbicidal rate of 40% or more and less than 70%)
[7]
  Q: false cleavers, herbicidal effect grade: 0 (Herbicidal rate of 5% or less (almost no effect))
[8]
  herbicidal effect on persian speedwell (R): 5 (Herbicidal rate of 90% or more (almost completely withered))
[9]
  F: southern crabgrass, herbicidal effect grade: 3 (Herbicidal rate of 40% or more and less than 70%)
[10]
  M: velvetleaf, herbicidal effect grade: 1 (Herbicidal rate of 5% or more and less than 20%)
[11]
  P: chickweed, herbicidal effect grade: 1 (Herbicidal rate of 5% or more and less than 20%)
[12]
  Herbicidal effect on D (Chinese sprangletop), foliage application: 2 (Herbicidal rate of 20% or more and less than 40%)
[13]
  J: blackgrass, herbicidal effect grade: 0 (Herbicidal rate of 5% or less (almost no effect))
[14]
  herbicidal effect on velvetleaf (M): 3 (Herbicidal rate of 40% or more and less than 70%)
[15]
  herbicidal effect on wild oat (I): 3 (Herbicidal rate of 40% or more and less than 70%)
[16]
  H: barnyard grass, herbicidal effect grade: 1 (Herbicidal rate of 5% or more and less than 20%)
[17]
  herbicidal effect on southern crabgrass (F): 0 (Herbicidal rate of 5% or less (almost no effect))
[18]
  I: wild oat, herbicidal effect grade: 0 (Herbicidal rate of 5% or less (almost no effect))
[19]
  Herbicidal effect on E (rice flat sedge), foliage application: 5 (Herbicidal rate of 90% or more (almost completely withered))
[20]
  herbicidal effect on green foxtail (G): 4 (Herbicidal rate of 70% or more and less than 90%)
[21]
  L: windgrass, herbicidal effect grade: 0 (Herbicidal rate of 5% or less (almost no effect))
[22]
  R: persian speedwell, herbicidal effect grade: 4 (Herbicidal rate of 70% or more and less than 90%)
[23]
  Herbicidal effect on H (barnyard grass), foliage application: 5 (Herbicidal rate of 90% or more (almost completely withered))
[24]
  G: green foxtail, herbicidal effect grade: 4 (Herbicidal rate of 70% or more and less than 90%)
[25]
  herbicidal effect on windgrass (L): 4 (Herbicidal rate of 70% or more and less than 90%)
[26]
  herbicidal effect on Italian ryegrass (K): 5 (Herbicidal rate of 90% or more (almost completely withered))
